Experiments:
[1] = test system: murine B16F10 melanoma cell line; test: B16F10 IFNγ-induced cellular growth inhibition assay (xCELLigence RTCA); type: cell-based; conditions: Mus musculus, B16-F10, 48 h; read-out: B16 IFNγ Mediated Growth Inhibition Assay: AVG IC50
Description: Example B: B16F10 Cellular Growth Inhibition Assay
Compound activity was determined using an interferon gamma (IFNγ)-induced cellular growth inhibition assay with the murine B16F10 melanoma cell line on an Agilent xCELLigence Real-Time Cell Analysis platform (RTCA). RTCA E-Plate View 96 plates (Agilent, 300601010) were pre-equilibrated with 50 μL of assay media (DMEM+10% FBS, Gibco 10566-024, Gibco 10082-147) at 37° C., in a humidified incubator before taking an initial measurement of impedance (sweep). B16F10 cells cultured in assay media were dissociated with TrypLE Express (Gibco 12605-010) for five minutes at 37° C., diluted in 3 volumes of assay buffer, centrifuged for 5 minutes at 500×g at room temperature before diluting cells to 7,700 cells/mL in assay media, plating 130 μL/well (1,000 cells/well) in the inner 60 wells of the assay plate, and adding 150 μL of assay media to the outer wells of the plate. Cells were incubated at room temperature for 20 min to allow cells to settle before placing them in the xCELLigence reader and incubating overnight at 37° C., sweeping wells every 15 minutes. After 24 hours, well readings were paused, plates were removed from the incubator and compounds were added using a Tecan D300e dispenser. All wells were normalized to a final concentration of 0.5% DMSO. Following a 30 min incubation at 37° C., recombinant mouse IFNγ (R&D Systems™ 485 MI100) was diluted to 10 ng/ml in assay media and 20 μL was added to assay wells (1 ng/mL final concentration). Assay plates were placed in the xCELLigence reader and swept every 15 minutes. After 48 hours, well readings were normalized to the time point immediately preceding compound addition and the area under the growth curve (AUC) was calculated by the RTCA software and exported.

[2] = molecular target: full-length human PTPN2 (TC45) (1-387) protein (Homo sapiens (Human), UniProt P17706); test: Enzymatic assay, full-length PTPN2 DiFMUP assay; type: biochemical; conditions: 0.5 nM PTPN2, 100 μM DiFMUP, 30 min at room temperature
Source text: Example A: Enzymatic Assay Used to Determine Potency of PTPN2 Inhibitors
Compounds were subsequently added using a Tecan D300e dispenser. […] A four-parameter curve fit was used to determine IC50 values from % inhibition data.

Chain of full-length human PTPN2 (TC45) (1-387) protein (P17706 other isoform, or with tags, fused parts or gaps): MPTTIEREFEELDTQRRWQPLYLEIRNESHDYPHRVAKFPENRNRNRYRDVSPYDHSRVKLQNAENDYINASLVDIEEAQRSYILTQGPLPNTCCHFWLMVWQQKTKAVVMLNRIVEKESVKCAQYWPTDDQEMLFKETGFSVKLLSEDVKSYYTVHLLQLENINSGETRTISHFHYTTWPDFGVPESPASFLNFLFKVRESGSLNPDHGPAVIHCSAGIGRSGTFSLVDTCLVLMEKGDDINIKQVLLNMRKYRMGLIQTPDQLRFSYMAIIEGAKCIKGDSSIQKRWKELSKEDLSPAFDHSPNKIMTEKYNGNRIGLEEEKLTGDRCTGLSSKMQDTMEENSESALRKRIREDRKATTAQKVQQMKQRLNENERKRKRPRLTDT

IC50 [1] [nM] | SMILES | IC50 [2] [nM]
3330 | O=C1CN(c2c(O)cc3c(c2F)CCCN3)S(=O)(=O)N1 [Example 3, 5-(5-fluoro-7-hydroxy-1,2,3,4-tetrahydroquinolin-6-yl)-1,2,5-thiadiazolidin-3-one 1,1-dioxide] | 131
– | CCN1CCCc2c1cc(O)c(N1CC(=O)NS1(=O)=O)c2F [Example 5] | 878
– | CC(C)CCN1CCCc2c1cc(O)c(N1CC(=O)NS1(=O)=O)c2F [Example 8] | 957
– | CC(C)CN1CCCc2c1cc(O)c(N1CC(=O)NS1(=O)=O)c2F [Example 6] | 959
1450 | CC(C)CCNC1CNc2cc(O)c(N3CC(=O)NS3(=O)=O)c(F)c2C1 (stereo not drawn) [Example 2, 5-(5-fluoro-7-hydroxy-3-(isopentylamino)-1,2,3,4-tetrahydroquinolin-6-yl)-1,2,5-thiadiazolidin-3-one 1,1-dioxide] | 13
12700 | CN1CCCc2c1cc(O)c(N1CC(=O)NS1(=O)=O)c2F [Example 4, 5-(5-fluoro-7-hydroxy-1-methyl-1,2,3,4-tetrahydroquinolin-6-yl)-1,2,5-thiadiazolidin-3-one 1,1-dioxide] | 875
– | O=C1CN(c2c(O)cc3c(c2F)CCCN3Cc2ccccc2)S(=O)(=O)N1 [Example 7] | 532
– | O=C1CN(c2c(O)cc3c(c2F)CCCN3CCc2ccccc2)S(=O)(=O)N1 [Example 9] | 1620
– | COc1cc2c(c(F)c1N1CC(=O)NS1(=O)=O)CC(NCCC(C)C)CN2C (stereo not drawn) [Example 1, 5-(5-fluoro-3-(isopentylamino)-7-methoxy-1-methyl-1,2,3,4-tetrahydroquinolin-6-yl)-1,2,5-thiadiazolidin-3-one 1,1-dioxide] | > 30000
